Reference: patent US20110295343A1, “NEAR-INFRARED ELECTROMAGNETIC MODIFICATION OF CELLULAR STEADY-STATE MEMBRANE POTENTIALS” (priority 2008, published 2011)
Values joined by “and” are separate entries in the source; they are usually repeats but may differ in a detail not shown here. Identical values can stand only once.

Test system: MRSA (ATCC BAA-43)
Assay: MRSA/antimicrobial potentiation, CFU on TSB agar with and without antibiotic after laser (Example XXII, Experiments 1-4)
Assay type: cell-based, Staphylococcus aureus subsp. aureus
Details: for CFU (single plate count): 0.5 μg/ml penicillin G or 4 μg/ml erythromycin, plates 1-5; for AVG (CFU): mean of 5 plates; for Drug Effect: CFU with drug relative to without drug; for Laser Effect (+Drug): Exp vs Cont, both with drug; for Laser Effect (+Meth): both on 30 μg/ml methicillin; for Meth Effect: CFU with methicillin / without; for AVG: mean of plates; for CFU: replicate plates
Description: Four separate experiments have been performed.
Eight different laser dosages were used to treat a saline-suspension of logarithmically growing MRSA, labeled A1 to H1.
The treated and a control untreated suspension were diluted and plated in triplicate on trypic soy agar with or without 30 μg/ml methicillin After 24 hrs of growth at 37° C. colonies were counted.
CFU (colony forming units) were compared between the plates with and without methicillin for both control (untreated) and treated MRSA.
The treated and a control untreated suspension were diluted and plated in triplicate on trypic soy agar with or without 30 μg/mlmethicillin.
After 24 hrs of growth at 37° C. colonies were counted.
The treated and a control untreated suspension were diluted and plated in pentuplicate on trypic soy agar with or without 30 μg/ml methicillin.

[1] = Cont (no laser), Drug yes, groups A4/C4/E4
[2] = Cont (no laser), Drug yes, groups B4/D4/F4
[3] = Exp (laser 870+930 at 5 W 14 min, then 930 at 6 W 9 min), Drug yes, groups B4/D4/F4
[4] = Exp (laser 870+930 at 5.5 W 12 min, then 930 at 8 W 6 min), Drug yes, groups A4/C4/E4
[5] = Exp#1 A1 Cont (no laser), agar with 30 μg/ml methicillin
[6] = Exp#1 A1 Exp (laser treated), agar with 30 μg/ml methicillin
[7] = Exp#1 B1 Cont (no laser), agar with 30 μg/ml methicillin
[8] = Exp#1 B1 Exp (laser treated), agar with 30 μg/ml methicillin
[9] = Exp#1 C1 Cont (no laser), agar with 30 μg/ml methicillin
[10] = Exp#1 C1 Exp (laser treated), agar with 30 μg/ml methicillin
[11] = Exp#1 D1 Cont (no laser), agar with 30 μg/ml methicillin
[12] = Exp#1 D1 Exp (laser treated), agar with 30 μg/ml methicillin
[13] = Exp#1 E1 Cont (no laser), agar with 30 μg/ml methicillin
[14] = Exp#1 E1 Exp (laser treated), agar with 30 μg/ml methicillin
[15] = Exp#1 F1 Cont (no laser), agar with 30 μg/ml methicillin
[16] = Exp#1 F1 Exp (laser treated), agar with 30 μg/ml methicillin
[17] = Exp#1 G1 Cont (no laser), agar with 30 μg/ml methicillin
[18] = Exp#1 G1 Exp (laser treated), agar with 30 μg/ml methicillin
[19] = Exp#1 H1 Cont (no laser), agar with 30 μg/ml methicillin
[20] = Exp#1 H1 Exp (laser treated), agar with 30 μg/ml methicillin
[21] = Exp#2 A2 Cont (no laser), agar with 30 μg/ml methicillin
[22] = Exp#2 A2 Exp (laser treated), agar with 30 μg/ml methicillin
[23] = Exp#2 B2 Cont (no laser), agar with 30 μg/ml methicillin
[24] = Exp#2 B2 Exp (laser treated), agar with 30 μg/ml methicillin

SMILES: COc1cccc(OC)c1C(=O)N[C@@H]1C(=O)N2[C@@H]1SC(C)(C)[C@@H]2C(=O)O [Methicillin]
- CFU/ml [1]: 2.59E+08 CFU/ml
- CFU (single plate count) (Cont (no laser), Drug yes, groups A4/C4/E4, agar with 30 μg/ml methicillin, 24 hrs 37° C.): 97 CFU and 104 CFU and 82 CFU and 58 CFU and 90 CFU
- AVG (CFU) [1]: 86.2 CFU
- CFU/ml [2]: 3.98E+08 CFU/ml
- CFU (single plate count) (Cont (no laser), Drug yes, groups B4/D4/F4, agar with 30 μg/ml methicillin, 24 hrs 37° C.): 149 CFU and 101 CFU and 119 CFU and 153 CFU and 141 CFU
- AVG (CFU) [2]: 132.6 CFU
- Drug Effect (Cont (no laser), groups A4/C4/E4): 0.94
- Drug Effect (Cont (no laser), groups B4/D4/F4): 1.26
- CFU/ml [3]: 1.27E+08 CFU/ml
- AVG (CFU) [3]: 42.4 CFU
- Drug Effect (Exp (laser 870+930 at 5 W 14 min, then 930 at 6 W 9 min), groups B4/D4/F4): 0.48
- CFU/ml [4]: 1.09E+08 CFU/ml
- AVG (CFU) [4]: 36.2 CFU
- Drug Effect (Exp (laser 870+930 at 5.5 W 12 min, then 930 at 8 W 6 min), groups A4/C4/E4): 0.43
- CFU (single plate count) (Exp (laser: 870 at 5 W and 930 at 5 W for 14 min followed by 930 at 6 W for 9 min), Drug yes, groups B4/D4/F4, 30 μg/ml methicillin): 46 CFU and 34 CFU and 42 CFU and 44 CFU
- CFU (single plate count) (Exp (laser: 870 at 5.5 W and 930 at 5.5 W for 12 min followed by 930 at 8 W for 6 min), Drug yes, groups A4/C4/E4, 30 μg/ml methicillin): 37 CFU and 33 CFU and 36 CFU and 39 CFU
- Laser Effect (+Drug) (laser 870+930 at 5 W 14 min, then 930 at 6 W 9 min, groups B4/D4/F4): 0.32
- Laser Effect (+Drug) (laser 870+930 at 5.5 W 12 min, then 930 at 8 W 6 min, groups A4/C4/E4): 0.42
- Laser Effect (+Meth) (Exp#1 A1, laser Exp / Cont): 0.7035
- Meth Effect (Exp#1 A1 Cont (no laser)): 0.6956
- CFU/ml [5]: 4.25E+08 CFU/ml
- AVG [5]: 141.7 CFU
- CFU [5]: 207 CFU and 137 CFU and 81 CFU
- Meth Effect (Exp#1 A1 Exp (laser treated)): 0.7419
- CFU/ml [6]: 2.99E+08 CFU/ml
- AVG [6]: 99.7 CFU
- CFU [6]: 99 CFU and 96 CFU and 104 CFU
- Laser Effect (+Meth) (Exp#1 B1, laser Exp / Cont): 0.6693
- Meth Effect (Exp#1 B1 Cont (no laser)): 0.8991
- CFU/ml [7]: 5.08E+08 CFU/ml
- AVG [7]: 169.3 CFU
- CFU [7]: 166 CFU and 192 CFU and 150 CFU
- Meth Effect (Exp#1 B1 Exp (laser treated)): 0.5657
- CFU/ml [8]: 3.40E+08 CFU/ml
- AVG [8]: 113.3 CFU
- CFU [8]: 102 CFU and 107 CFU and 131 CFU
- Laser Effect (+Meth) (Exp#1 C1, laser Exp / Cont): 0.3259
- Meth Effect (Exp#1 C1 Cont (no laser)): 1.267
- CFU/ml [9]: 1.22E+09 CFU/ml
- AVG [9]: 406 CFU
- CFU [9]: 240 CFU and 466 CFU and 512 CFU
- Meth Effect (Exp#1 C1 Exp (laser treated)): 0.7192
- CFU/ml [10]: 3.97E+08 CFU/ml
- AVG [10]: 132.3 CFU
- CFU [10]: 95 CFU and 176 CFU and 126 CFU
- Laser Effect (+Meth) (Exp#1 D1, laser Exp / Cont): 1.0087
- Meth Effect (Exp#1 D1 Cont (no laser)): 0.837
- CFU/ml [11]: 4.62E+08 CFU/ml
- AVG [11]: 154 CFU
- CFU [11]: 171 CFU and 141 CFU and 150 CFU
- Meth Effect (Exp#1 D1 Exp (laser treated)): 0.7627
- CFU/ml [12]: 4.66E+08 CFU/ml
- AVG [12]: 155.3 CFU
- CFU [12]: 164 CFU and 153 CFU and 149 CFU
- Laser Effect (+Meth) (Exp#1 E1, laser Exp / Cont): 1.632
- Meth Effect (Exp#1 E1 Cont (no laser)): 0.5828
- CFU/ml [13]: 3.94E+08 CFU/ml
- AVG [13]: 131.3 CFU
- CFU [13]: 147 CFU and 121 CFU and 126 CFU
- Meth Effect (Exp#1 E1 Exp (laser treated)): 0.8297
- CFU/ml [14]: 6.43E+08 CFU/ml
- AVG [14]: 214.3 CFU
- CFU [14]: 181 CFU and 232 CFU and 230 CFU
- Laser Effect (+Meth) (Exp#1 F1, laser Exp / Cont): 0.9949
- Meth Effect (Exp#1 F1 Cont (no laser)): 0.8735
- CFU/ml [15]: 5.94E+08 CFU/ml
- AVG [15]: 198 CFU
- CFU [15]: 197 CFU and 188 CFU and 209 CFU
- Meth Effect (Exp#1 F1 Exp (laser treated)): 0.8289
- CFU/ml [16]: 5.91E+08 CFU/ml
- AVG [16]: 197 CFU
- CFU [16]: 206 CFU (2×) and 179 CFU
- Laser Effect (+Meth) (Exp#1 G1, laser Exp / Cont): 0.9605
- Meth Effect (Exp#1 G1 Cont (no laser)): 0.9792
- CFU/ml [17]: 6.58E+08 CFU/ml
- AVG [17]: 219.3 CFU
- CFU [17]: 246 CFU and 222 CFU and 190 CFU
- Meth Effect (Exp#1 G1 Exp (laser treated)): 0.8681
- CFU/ml [18]: 6.32E+08 CFU/ml
- AVG [18]: 210.7 CFU
- CFU [18]: 193 CFU and 237 CFU and 202 CFU
- Laser Effect (+Meth) (Exp#1 H1, laser Exp / Cont): 1.0381
- Meth Effect (Exp#1 H1 Cont (no laser)): 0.7533
- CFU/ml [19]: 5.77E+08 CFU/ml
- AVG [19]: 192.3 CFU
- CFU [19]: 188 CFU and 206 CFU and 183 CFU
- Meth Effect (Exp#1 H1 Exp (laser treated)): 0.815
- CFU/ml [20]: 5.99E+08 CFU/ml
- AVG [20]: 199.7 CFU
- CFU [20]: 211 CFU and 212 CFU and 176 CFU
- Laser Effect (+Meth) (Exp#2 A2, laser Exp / Cont): 1.15
- Meth Effect (Exp#2 A2 Cont (no laser)): 0.72
- CFU/ml [21]: 1.07E+08 CFU/ml
- AVG [21]: 35.7 CFU
- CFU [21]: 35 CFU and 47 CFU and 25 CFU
- Meth Effect (Exp#2 A2 Exp (laser treated)): 0.87
- CFU/ml [22]: 1.23E+08 CFU/ml
- AVG [22]: 41 CFU
- CFU [22]: 39 CFU and 48 CFU and 36 CFU
- Laser Effect (+Meth) (Exp#2 B2, laser Exp / Cont): 0.54
- Meth Effect (Exp#2 B2 Cont (no laser)): 0.7
- CFU/ml [23]: 1.49E+08 CFU/ml
- AVG [23]: 49.7 CFU
- CFU [23]: 47 CFU and 56 CFU and 46 CFU
- Meth Effect (Exp#2 B2 Exp (laser treated)): 0.77
- CFU/ml [24]: 8.00E+07 CFU/ml
- AVG [24]: 26.7 CFU
- CFU [24]: 27 CFU and 28 CFU and 25 CFU
- Laser Effect (+Meth) (Exp#2 C2, laser Exp / Cont): 0.23
- Meth Effect (Exp#2 C2 Cont (no laser)): 0.99
